Source: US10800725B2, “Arylpropionyl-triketone antibacterial agents” (priority 2010, dated 2020)
Converted amounts (≈) assume the structure as drawn.

What was measured:
[1] = molecular target: M. tuberculosis RNA polymerase core enzyme + σA (Mycobacterium tuberculosis (strain ATCC 25618 / H37Rv), UniProt P9WGY7+P9WGY9); test: Fluorescence-detected RNA polymerase assay, M. tuberculosis RNAP; assay type: biochemical
Description: (§1) Fluorescence-detected RNA polymerase assays with E. coli RNA polymerase were performed by a modification of the procedure of Kuhlman et al., 2004 [Kuhlman, P., Duff, H. & Galant, A. (2004) A fluorescence-based assay for multisubunit DNA-dependent RNA polymerases. Anal. Biochem. 324, 183-190]. Reaction mixtures contained (20 μl): 0-100 nM test compound, 75 nM E. coli RNA polymerase σ^70 holoenzyme, 20 nM 384 bp DNA fragment containing the bacteriophage T4 N25 promoter, 100 μM ATP, 100 μM GTP, 100 μM UTP, 100 μM CTP, 50 mM Tris-HCl, pH 8.0, 100 mM KCl, 10 mM MgCl2, 1 mM DTT, 10 μg/ml bovine serum albumin, and 5.5% glycerol. Reaction components other than DNA and NTPs were pre-incubated for 10 min at 37° C. Reactions were carried out by addition of DNA and incubation for 5 min at 37° C., followed by addition of NTPs and incubation for 60 min at 37° C. DNA was removed by addition of 1 μl 5 mM CaCl2 and 2 U DNaseI (Ambion, Inc.), followed by incubation for 90 min at 37° C. RNA was quantified by addition of 100 μl RiboGreen RNA Quantitation Reagent (Invitrogen, Inc.; 1:500 dilution in Tris-HCl, pH 8.0, 1 mM EDTA), followed by incubation for 10 min at 25° C., followed by measurement of fluorescence intensity [excitation wavelength=485 nm and emission wavelength=535 nm; QuantaMaster QM1 spectrofluorometer (PTI, Inc.)]. IC50 is defined as the concentration of inhibitor resulting in 50% inhibition of RNA polymerase activity.
(§2) Fluorescence-detected RNA polymerase assays with M. tuberculosis RNA polymerase were performed as in Example 21.1, using reaction mixtures containing (20 μl): 0-100 nM test compound, 75 nM M. tuberculosis RNA polymerase core enzyme, 300 nM M. tuberculosis σ^A, 20 nM 384 bp DNA fragment containing the bacteriophage T4 N25 promoter, 100 μM ATP, 100 μM GTP, 100 μM UTP, 100 μM CTP, 40 mM Tris-HCl, pH 8.0, 80 mM NaCl, 5 mM MgCl2, 2.5 mM DTT, and 12.7% glycerol. IC50 is defined as the concentration of inhibitor resulting in 50% inhibition of RNA polymerase activity.

[2] = system: Escherichia coli D21f2tolC; test: MIC, spiral gradient endpoint assay; conditions: read-out: MIC E. coli D21f2tolC
[3] = system: Streptococcus pyogenes ATCC 12344; test: MIC, spiral gradient endpoint assay (GC II agar, 5% CO2); conditions: ATCC12344, read-out: MIC S. pyogenes 12344
[4] = system: Staphylococcus aureus ATCC 12600; test: MIC, spiral gradient endpoint assay; conditions: ATCC12600, read-out: MIC S. aureus 12600
[5] = system: Streptococcus pneumoniae ATCC 49619; test: MIC, spiral gradient endpoint assay (GC II agar, 5% CO2); conditions: ATCC49619, read-out: MIC S. pneumoniae 49619
[6] = system: Mycobacterium tuberculosis H37Rv; test: MIC, microplate Alamar Blue assay; conditions: read-out: MIC M. tuberculosis H37Rv
[7] = molecular target: S. aureus RNA polymerase core enzyme + σA (Staphylococcus aureus (strain NCTC 8325 / PS 47), UniProt P47768+Q2G0N5); test: Fluorescence-detected RNA polymerase assay, S. aureus RNAP; assay type: biochemical
Description: as §1
as §2, with “S. aureus” for “M. tuberculosis”

[8] = molecular target: E. coli RNA polymerase σ70 holoenzyme (Escherichia coli (strain K12), UniProt P0A8T7+P0A8V2); test: Fluorescence-detected RNA polymerase assay, E. coli RNAP; assay type: biochemical
Description: as §1

[9] = system: Bacillus anthracis Vollum-1b; test: microbe, parasite or virus in culture; assay type: cell-based; conditions: VOLLUM1B, read-out: MIC B. anthracis Vollum-1b
[10] = system: Enterococcus faecalis ATCC 19433; test: MIC, spiral gradient endpoint assay; conditions: ATCC19433, read-out: MIC E. faecalis 19433
[11] = system: Francisella tularensis SCHU4; test: microbe, parasite or virus in culture; assay type: cell-based; conditions: SCHU4, read-out: MIC F. tularensis SCHU4
[12] = system: Moraxella catarrhalis ATCC 25238; test: MIC, spiral gradient endpoint assay (GC II agar, 5% CO2); conditions: ATCC25238, read-out: MIC M. catarrhalis 25238

| SMILES | IC50 [1] [µM] | MIC [2] [µg/mL] | MIC [3] [µg/mL] | MIC [4] [µg/mL] | MIC [5] [µg/mL] | MIC [6] [µg/mL] | IC50 [7] [µM] | IC50 [8] [µM] | MIC [9] [µg/mL] | MIC [10] [µg/mL] | MIC [11] [µg/mL] | MIC [12] [µg/mL] |
| --- | --- | --- | --- | --- | --- | --- | --- | --- | --- | --- | --- | --- |
| CC(C)CCC1=C(O)C(CCC(C)C)(CCC(C)C)C(=O)C(C(=O)CCc2ccccc2Cl)=C1O [Compound 1, 3,5-dihydroxy-2-(3-(2-chlorophenyl)propanoyl)-4,6,6-triisopentylcyclohexa-2,4-dienone] | 1.2 | 24 (≈ 47.7 µM) | 19 (≈ 37.8 µM) | 0.6 (≈ 1.19 µM) | 15 (≈ 29.8 µM) | 50 (≈ 99.4 µM) | 5.7 | 2.1 | 0.049 (≈ 0.0974 µM) | 2 (≈ 3.98 µM) | 6.25 (≈ 12.4 µM) | > 40 |
| CC(C)CCC1=C(O)C(CCC(C)C)(CCC(C)C)C(=O)C(C(=O)CCc2cccc(Cl)c2)=C1O [Compound 2, 3,5-dihydroxy-2-(3-(3-chlorophenyl)propanoyl)-4,6,6-triisopentylcyclohexa-2,4-dienone] | 2.2 | 15 (≈ 29.8 µM) | 19 (≈ 37.8 µM) | 0.5 (≈ 0.994 µM) | 12 (≈ 23.9 µM) | 50 (≈ 99.4 µM) | 5.9 | 2.5 | 0.098 (≈ 0.195 µM) | 1 (≈ 1.99 µM) | > 50 | 19 (≈ 37.8 µM) |
| CC(C)CCC1=C(O)C(CCC(C)C)(CCC(C)C)C(=O)C(C(=O)CCc2ccc(Cl)cc2)=C1O [Compound 3, 3,5-dihydroxy-2-(3-(4-chlorophenyl)propanoyl)-4,6,6-triisopentylcyclohexa-2,4-dienone] | 0.77 | 8 (≈ 15.9 µM) | 19 (≈ 37.8 µM) | 0.4 (≈ 0.795 µM) | 19 (≈ 37.8 µM) | 50 (≈ 99.4 µM) | 2.4 | 0.63 | 0.049 (≈ 0.0974 µM) | 1 (≈ 1.99 µM) | > 50 | 19 (≈ 37.8 µM) |
| COc1ccccc1CCC(=O)C1=C(O)C(CCC(C)C)=C(O)C(CCC(C)C)(CCC(C)C)C1=O [Compound 4, 3,5-dihydroxy-2-(3-(2-methoxyphenyl)propanoyl)-4,6,6-triisopentylcyclohexa-2,4-dienone] | 1.6 | 12 (≈ 24.1 µM) | 15 (≈ 30.1 µM) | 0.6 (≈ 1.2 µM) | 2.7 (≈ 5.41 µM) | > 50 | 4.3 | 1.9 | 0.098 (≈ 0.197 µM) | 3 (≈ 6.02 µM) | > 50 | > 40 |
| COc1cccc(CCC(=O)C2=C(O)C(CCC(C)C)=C(O)C(CCC(C)C)(CCC(C)C)C2=O)c1 [Compound 5, 3,5-dihydroxy-2-(3-(3-methoxyphenyl)propanoyl)-4,6,6-triisopentylcyclohexa-2,4-dienone] | 1.1 | 2 (≈ 4.01 µM) | 7.1 (≈ 14.2 µM) | 0.4 (≈ 0.802 µM) | 3.5 (≈ 7.02 µM) | 50 (≈ 100 µM) | 3.1 | 1.1 | 0.049 (≈ 0.0983 µM) | 2 (≈ 4.01 µM) | 1.56 (≈ 3.13 µM) | 19 (≈ 38.1 µM) |
| COc1ccc(CCC(=O)C2=C(O)C(CCC(C)C)=C(O)C(CCC(C)C)(CCC(C)C)C2=O)cc1 [Compound 6, 3,5-dihydroxy-2-(3-(4-methoxyphenyl)propanoyl)-4,6,6-triisopentylcyclohexa-2,4-dienone] | 1.2 | 6 (≈ 12 µM) | 15 (≈ 30.1 µM) | 0.6 (≈ 1.2 µM) | 5.6 (≈ 11.2 µM) | 50 (≈ 100 µM) | 3.4 | 1.8 | 0.098 (≈ 0.197 µM) | 12 (≈ 24.1 µM) | > 50 | 19 (≈ 38.1 µM) |
| Cc1ccccc1CCC(=O)C1=C(O)C(CCC(C)C)=C(O)C(CCC(C)C)(CCC(C)C)C1=O [Compound 7, 3,5-dihydroxy-2-(3-(2-methylphenyl)propanoyl)-4,6,6-triisopentylcyclohexa-2,4-dienone] | 0.17 | 7 (≈ 14.5 µM) | – | 0.5 (≈ 1.04 µM) | – | 50 (≈ 104 µM) | 1.1 | 0.21 | – | 1 (≈ 2.07 µM) | – | – |
| Cc1cccc(CCC(=O)C2=C(O)C(CCC(C)C)=C(O)C(CCC(C)C)(CCC(C)C)C2=O)c1 [Compound 8, 3,5-dihydroxy-2-(3-(3-methylphenyl)propanoyl)-4,6,6-triisopentylcyclohexa-2,4-dienone] | 0.6 | 12 (≈ 24.9 µM) | – | 4 (≈ 8.29 µM) | – | > 50 | 2.2 | 0.42 | – | 1 (≈ 2.07 µM) | – | – |
| Cc1ccc(CCC(=O)C2=C(O)C(CCC(C)C)=C(O)C(CCC(C)C)(CCC(C)C)C2=O)cc1 [Compound 9, 3,5-dihydroxy-2-(3-(4-methylphenyl)propanoyl)-4,6,6-triisopentylcyclohexa-2,4-dienone] | 0.29 | 4.4 (≈ 9.12 µM) | – | 0.5 (≈ 1.04 µM) | – | 25 (≈ 51.8 µM) | 0.84 | 0.22 | – | 1 (≈ 2.07 µM) | – | – |
| CC(C)CCC1=C(O)C(CCC(C)C)(CCC(C)C)C(=O)C(C(=O)CCc2ccc(F)cc2)=C1O [Compound 10, 3,5-dihydroxy-2-(3-(4-fluorophenyl)propanoyl)-4,6,6-triisopentylcyclohexa-2,4-dienone] | 0.64 | 2.7 (≈ 5.55 µM) | – | 0.5 (≈ 1.03 µM) | – | 50 (≈ 103 µM) | 2.2 | 0.53 | – | 2.7 (≈ 5.55 µM) | – | – |
| CC(C)CCC1=C(O)C(CCC(C)C)(CCC(C)C)C(=O)C(C(=O)CCc2ccc(Br)cc2)=C1O [Compound 11, 3,5-dihydroxy-2-(3-(4-bromophenyl)propanoyl)-4,6,6-triisopentylcyclohexa-2,4-dienone] | 0.78 | 3.3 (≈ 6.03 µM) | – | 0.8 (≈ 1.46 µM) | – | 50 (≈ 91.3 µM) | 3.3 | 0.89 | – | 2.6 (≈ 4.75 µM) | – | – |
| CC(C)CCC1=C(O)C(CCC(C)C)(CCC(C)C)C(=O)C(C(=O)CCc2ccc(C(F)(F)F)cc2)=C1O [Compound 12, 3,5-dihydroxy-2-(3-(4-trifluoromethylphenyl)propanoyl)-4,6,6-triisopentylcyclohexa-2,4-dienone] | 0.22 | 4.3 (≈ 8.01 µM) | – | 0.6 (≈ 1.12 µM) | – | 25 (≈ 46.6 µM) | 0.46 | 0.12 | – | 0.5 (≈ 0.932 µM) | – | – |
| CCCC1=C(O)C(CCC)(CCC)C(=O)C(C(=O)CCc2ccc(Cl)cc2)=C1O [Compound 13, 3,5-dihydroxy-2-(3-(4-chlorophenyl)propanoyl)-4,6,6-tripropylcyclohexa-2,4-dienone] | 1.4 | 0.8 (≈ 1.91 µM) | – | 0.7 (≈ 1.67 µM) | – | > 50 | 5.3 | 7.8 | – | 2.2 (≈ 5.25 µM) | – | – |
| CCCCC1=C(O)C(CCCC)(CCCC)C(=O)C(C(=O)CCc2ccc(Cl)cc2)=C1O [Compound 14, 3,5-dihydroxy-2-(3-(4-chlorophenyl)propanoyl)-4,6,6-tributylcyclohexa-2,4-dienone] | 0.68 | 0.6 (≈ 1.3 µM) | – | 0.5 (≈ 1.08 µM) | – | > 50 | 3.1 | 1.1 | – | 1.3 (≈ 2.82 µM) | – | – |
